2 compounds from patent US20220054532A1, “VETERINARY COMPOSITIONS AND METHODS OF USE THEREFOR” (priority 2019, published 2022) can be followed below.

SMILES strings stand for the structures.

Holding throughout (format): in vivo
The subject of assay [1] is cats suffering behavior aberrations and/or anxiety. Description: Example 5: behavior aberrations and anxiety, Fe-BARQ (feline). Particulars: Fe-BARQ day 0 vs 60, SID, 0 (no improvement) to 3 (marked improvement). An excerpt:
(§1) This example examines the ability of embodiments of the invention versus Clomicalm® to reduce behavior aberrations and anxiety.
(§2) The first patient group is twenty dogs suffering behavior aberrations and/or anxiety, as determined by the canine behavioral assessment and research questionnaire (“C-BARQ”). See, e.g., P. Wiener et al., Use of questionnaire-based data to assess dog personality, 16 JOURNAL OF VETERINARY BEHAVIOR 81-85 (2016). The second patient group is twenty cats suffering behavior aberrations and/or anxiety, as determined by the feline behavioral assessment and research questionnaire (“Fe-BARQ”).
(§3) Each group is broken into five groups of four animals. The first group receives Clomicalm® as the sole active agent; the second group receives a composition comprising HMW HA as the sole active agent; the third group receives a composition comprising CBD as the sole active agent; the fourth group receives a composition comprising HMW HA and CBD as the active agents; and the fifth group receives a composition comprising HMW HA, CBD, valerian root, and scutillaria as the active agents.
(§4) Each composition is administered for a period of sixty (60) days, once a day (“SID”). Owners complete the species-appropriate C-BARQ or Fe-BARQ on days 0 and 60 of treatment. The results from the overall questionnaire are averaged and characterized as no improvement (score of 0), mild improvement (score of 1), moderate improvement (score of 2), or marked improvement (score of 3).
The following feline scores are observed and the results depicted in FIG. 5b: […]

The subject of assay [2] is dogs suffering behavior aberrations and/or anxiety. Briefly: Example 5: behavior aberrations and anxiety, C-BARQ (canine). Particulars: C-BARQ day 0 vs 60, SID, 0 (no improvement) to 3 (marked improvement).
Text: as §1, §2, §3, §4
The following canine scores are observed and the results depicted in FIG. 5a: […]

The test system of assay [3] is dogs suffering from seizures. Briefly: Example 6: seizures in dogs. The settings on record: seizure scale 1 (seizure-free) to 10 (daily or multiple seizures). The source says:
(§5) This example examines the ability of embodiments of the invention versus phenobarbital to treat seizures.
(§6) The patient group is twenty-four dogs suffering from seizures as diagnosed by their referring veterinarian. The patient group is broken into six groups of four animals. The first group receives phenobarbital as the sole active agent; the second group receives a composition comprising phenobarbital and Keppra®; the third group receives a composition comprising HMW HA as the sole active agent; the fourth group receives a composition comprising CBD as the sole active agent; the fifth group receives a composition comprising HMW HA and CBD as the active agents; and the sixth group receives a composition comprising HMW HA, CBD, valerian root, and scutillaria as the active agents.
(§7) Each composition is administered for a period of sixty (60) days, BID. Each dog is evaluated on days 0 (“Initial Score”), 15, 30, 45, and 60 (“Final Score”) of treatment. The results are averaged and characterized on a scale of 1 (seizure-free) to 10 (daily seizures or multiple seizures during the event).
The following canine scores are observed and the results depicted in FIG. 6: […]

Assay [4] has as its system dogs suffering from seizures. Description: Example 14: seizures in dogs (CBD Complex). Particulars: seizure scale 1 (seizure-free) to 10 (daily or multiple seizures).
Text: as §5
as §6, with “and CBD Complex as the” for “and CBD as the”, “HMW HA, CBD Complex, valerian root,” for “HMW HA, CBD, valerian root,”
as §7
The following canine scores are observed and the results depicted in FIG. 14: […]

Consider `CN(C)CCCN1c2ccccc2CCc2ccc(Cl)cc21` [Clomicalm ®], for which the “Improvement Score” value is given as “.4” in assay [1] and “.5” in assay [2].
Turning to `CCC1(c2ccccc2)C(=O)NC(=O)NC1=O` [Phenobarbital], the “Initial Score” value in assay [3] (day 0) and in assay [4] (day 0) was 9 each time. The “Final Score” value stood at 8 in assay [3] (day 60, BID) and 8 in assay [4] (day 60, BID).
